From US20240091241A1, “USE OF CANNABIDIOL PREPARATIONS IN THE TREATMENT OF TEMPORAL LOBE EPILEPSY” (GW Research Limited, priority 2019, published 2024)

Experiments:
[1] = test system: rat model of temporal lobe epilepsy, Reduced Intensity Status Epilepticus (RISE); test: Post-Seizure Behavioural Battery (PSBB) in the Reduced Intensity Status Epilepticus (RISE) model; type: in vivo
Method: Reduced Intensity Status Epilepticus (RISE) model
The method, which detects anti-epileptic activity follows that described by Modebaze et al., 2016 (PLoS one, 11(2):e0147265).
On Day 1, the rats were treated with lithium chloride (127 mg/kg, 5 mL/kg, s.c.). Approximately 24 hours after, on Day 2, a-methyl scopolamine (1 mg/kg, 1 mL/kg, s.c.) was administered to reduce peripheral manifestations of muscarinic cholinergic receptor activation. Thirty minutes later, a dose of pilocarpine chloride was injected (range from 25 mg/kg×1 to 40 mg/kg×5, i.e. 25-200 mg/kg, 1 mL/kg, s.c., reference P6503, Sigma). […]
Status epilepticus was determined when seizure severity was equal to a score of 5 on a Racine's scale. […]
Behavioural signs of status epilepticus were ceased within 30 minutes and animals were then closely monitored during subsequent recovery. They were visually monitored until ambulatory and able to consume water and moistened, powdered food. […]
The lithium-pilocarpine rats were assessed in the two following behavioural tests twice weekly over the next 10 weeks, starting two weeks after status epilepticus induction (on Day 15). […]
The PSBB score was analysed pre and post-treatment to assess firstly if the animals were evenly distributed in the 3 different treatment groups based on their epileptic phenotype and if it was affected differently by synthetic and botanical CBD. […]

[2] = test system: Li-Pilo rats; test: Elevated plus-maze test in Li-Pilo rats; type: in vivo, rat; settings: 200 mg/kg, given orally for 6/7 weeks before the test
Method: (§1) From this point, the rats selected received vehicle during the first week of dosing then the test substance, CBD (SYN) or CBD (BOT 0.08%), at 200 mg/kg in drinking water until the end of the study, i.e. 7 weeks (1 week vehicle+6 weeks test substance). Dosing continued throughout the behavioural testing period (1 week). The drink was changed twice a week, until the end of the experiment.
The behavioural tests started 6 weeks after the beginning of dosing, i.e. between weeks 11 and 13. The rats were tested in sub-groups, depending on the beginning of the treatment. The behavioural tests included the elevated plus maze, social investigation, social recognition and accelerating rotarod tests (tests done in this order on the week of assessment).
The method, which detects anxiolytic activity, follows that described by Handley and Mithani (Naunyn. Schmied. Arch. Pharmacol., 327, 1-5, 1984). Rodents avoid open spaces (the open arms of an elevated plus-maze). Anxiolytics increase exploratory activity in the open arms, as indicated by increased time spent on the open arms and/or by increased % open-arm entries.
The maze consisted of 4 arms of equal length and width (50×10 cm) arranged in the form of a plus sign (+). Two opposite arms were enclosed by 40 cm high walls (closed arms). The 2 other arms had no walls (open arms). The maze was raised approximately 65 cm above the floor. A rat was placed in the center of the plus-maze and was left to explore for 5 minutes. The number of entries into the open and closed arms and the time spent on the open arms were recorded. The % of open arm entries (open arm entries/total arm entries×100) was calculated.
A test of normality (D'Agostino and Pearson) was done to check the distribution of the data before applying the appropriate statistical analysis. Data on the total number of entries and on the percent of entries in open arms was analyzed using One-Way analysis of variance (ANOVA) followed by Sidak's multiple comparisons test. Data on the time spent in open arms was analysed using Kruskal-Wallis Test followed by Dunn's multiple comparisons test.

[3] = test system: Li-Pilo rats; test: Social investigation test in Li-Pilo rats; type: in vivo, rat; settings: 200 mg/kg, given orally for 6/7 weeks before the test
Method: as §1
The behavioural tests started 6 weeks after the beginning of dosing, i.e. between weeks 11 and 13. The rats were tested in sub-groups, depending on the beginning of the treatment. […]
Two unfamiliar rats (housed in 2 separate cages) from the same group were placed in an unfamiliar testing arena (80×80×40 cm) under dim light (<100 Lux). The behavior of the 2 rats was recorded for 10 minutes.
The time each rat spent investigating (sniffing, grooming, licking, closely following) the other rat was measured manually for 10 minutes. Locomotor activity (line crossing) was also recorded.
A test of normality (D'Agostino and Pearson) was done to check the distribution of the data before applying the appropriate statistical analysis. Data on the investigation duration was analyzed using Kruskal-Wallis Test followed by Dunn's multiple comparisons test. Data on the number of crossings was analysed using One-Way ANOVA followed by Sidak's multiple comparisons test.

[4] = General status / body weight of Li-Pilo rats during treatment; type: in vivo, rat
Method: as §1
The rats were weighed twice a week, at the same time that the vehicle/formulations were changed in the bottles. The glass bottles were also weighed twice a week for evaluating the volume drunk by the rat and adjusting the concentration during the experiment.

In the case of `C=C(C)[C@@H]1CCC(C)=C[C@H]1c1c(O)cc(CCCCC)cc1O` [Synthetic CBD, cannabidiol], the “post-treatment PSBB score, as compared with control Li-Pilo rats (epileptic vehicle)” value ([1]; 200 mg/kg, given orally for 6/7 weeks before the test) is reported as “did not significantly affect”, the “post-treatment PSBB score (conclusion)” value ([1]; epileptic animals, comparator not stated) is reported as “failed to lower the score” and the “percent of entries in open arms, as compared with control Li-Pilo rats” value [2] is reported as “did not clearly affect”. The “time spent in open arms, as compared with control Li-Pilo rats” value [2] was “did not clearly affect”, the “total number of entries, as compared with control Li-Pilo rats” value ([2]; 5 minutes) was “did not clearly affect” and the “duration of investigation, as compared with control Li-Pilo rats” value [3] was “did not significantly change”. The “number of line crossings, as compared with control Li-Pilo rats” value [3] was “did not significantly change”, the “rats that lost weight on the 7 weeks of test” value ([4]; Phase 1) was “Three other rats lost weight” and the “deaths in the treated group” value ([4]; Phase 1, nine rats in group) was “Two rats died”. The “rats that lost weight on the 7 weeks of test” value ([4]; Phase 2) was “Four other rats lost weight” and the “rats lost before the end of the experiment” value ([4]; Phase 2, thirteen rats in group) was “One rat was sacrificed for ethical reasons”.
